Structures can show the parent of a compound that is named as a salt. Where two headings read alike, the source gives them in different places.
How the values were obtained:
[1] = system: male rats; assay: Local tolerance in animals (intravenous injection in caudal vein); format: in vivo; conditions: several days
Protocol: Tests were carried out for the purpose of evaluating the local tolerance of various aqueous compositions comprising dronedarone hydrochloride or only the corresponding vehicle as placebo.
To this end, a dose of one the aqueous compositions hereinbelow was administered daily for 5 days via the intravenous route to batches of 5 male rats. The injection was made in the caudal vein, preferably in the distal region, then in the median region and finally in the proximal region. The animals were then sacrificed on the 8th day and the tails were removed for the purpose of possible microscopic examination.

[2] = Aqueous solubility of dronedarone hydrochloride; format: physicochemical
Source text: As indicated above, the above β-cyclodextrin derivatives, when they are used in combination with an appropriate buffer, for example a phosphate buffer, in the compositions of the invention, make it possible in particular to increase the aqueous solubility of dronedarone or of its pharmaceutically acceptable salts.

[3] = Surface tension in aqueous solution (surfactant properties); format: physicochemical; conditions: with or without phosphate buffer
Protocol: This surfactant nature moreover proves to be as powerful in the presence as in the absence of a phosphate buffer and can be held as being partially responsible for a self-aggregation of dronedarone molecules in aqueous solution. In fact, this supramolecular organization in solution is due to the formation of dimers positioned head to tail and stacked in superimposed layers. These dimers, when they are administered by injection, lead to rupturing of the cell membrane and, consequently, to the appearance of inflammation at the injection site. Generally, these surfactant properties of dronedarone can be regarded as responsible for poor tolerance of the composition in which they are present.

Structure (SMILES)	tolerance at the injection site ([1]; aqueous formulation 1.065 mg/ml dronedarone hydrochloride with hydroxypropyl-β-cyclodextrin)	local tolerance ([1]; aqueous formulation 1.065 mg/ml dronedarone hydrochloride with phosphate buffer)	solubility ([2]; aqueous medium, aqueous buffer, ambient temperature, pH=4.85, read-out: solubility in an aqueous medium)	solubility ([2]; mono-sodium phosphate buffer (NaH2PO4), aqueous buffer, ambient temperature, pH range from 1.5 to 5, read-out: solubility in the presence of a mono-sodium phosphate buffer (NaH2PO4))	solubility in an aqueous medium ([2]; pH range from 1.5 to 5)	solubility in an aqueous medium ([2]; pH values of greater than 5.5)	solubility in the presence of a mono-sodium phosphate buffer (NaH2PO4) ([2]; pH=5.5)	solubility ([2]; phosphate buffer with hydroxypropyl-β-cyclodextrin, aqueous with cosolvent or surfactant or cyclodextrin, 100 mmolar phosphate buffer and 5% of hydroxypropyl-β-cyclodextrin, read-out: solubility)	effect on surface tension [3]
CCCCc1oc2ccc(NS(C)(=O)=O)cc2c1C(=O)c1ccc(OCCCN(CCCC)CCCC)cc1 [dronedarone hydrochloride, 2-butyl-3-(4-[[3-(dibutylamino)propoxy]]benzoyl)-5-(methanesulphonamido)benzofuran]	marked intolerance	poor local tolerance	500 µg/mL	2000 to 2250 µg/mL	virtually constant	virtually negligible	virtually zero	~6500 µg/mL	–
CCCCc1oc2ccc(NS(C)(=O)=O)cc2c1C(=O)c1ccc(OCCCN(CCCC)CCCC)cc1 [dronedarone, 2-butyl-3-(4-[[3-(dibutylamino)propoxy]]benzoyl)-5-(methanesulphonamido)benzofuran]	–	–	–	–	–	–	–	–	marked decrease
